Experimental data as given in patent US20090275583A1, “ANTIVIRAL COMPOUNDS AND USE THEREOF” (Myriad Genetics, Incorporated, priority 2006, published 2009).
Read-outs that look alike come from different tables or passages of the source.

Key:
HIV-1NL4-3 = experiment: P4-MAGI assay; assay type: cell-based
In short: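 Cytotoxicity (TC50, 50% growth inhibition) came from WST-1 in uninfected cells. For antiviral activity, compound at rising concentrations was added immediately after HIV-1NL4-3 inoculation (MOI 1, DEAE-Dextran) of P4 cells, CD4+ HeLa cells expressing β-galactosidase from a minimal HIV-1 LTR upon infection.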

[1] = test system: HIV-1 laboratory strain, NL4-3; experiment: MT-4 cytoprotection assay; assay type: cell-based
In short: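 MT-4 cells mock- or batch-infected with NL4-3 (MOI 0.0005) for 2 h, washed, then cultured 4 days with increasing compound concentrations. Viability read by WST-1 tetrazolium reduction: cytoprotection in infected cells, toxicity in mock-infected cells.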

[2] = Human immunodeficiency virus 1, 24 h, P4 cells, 24 hour incubation, β-galactosidase expression, read-out: P4-MAGI IC50
[3] = Human immunodeficiency virus 1, NL43, MT4, 96 h, MT-4 cells, four days incubation, WST-1 readout, read-out: MT4 EC50
[4] = Human immunodeficiency virus 1, NL43, less than about 100 nm, read-out: MT-4 assay EC50 (concentration of compound that reduces the virus induced cytopathic effect by 50%)
[5] = Human immunodeficiency virus 1, text statement, less than about 100 nm, read-out: P4-MAGI assay IC50

Compound | IC50 (HIV-1NL4-3; [2]) | EC50 [1, 3] | EC50 [1, 4] | IC50 (HIV-1NL4-3; [5])
C=C(C)[C@@H]1CC[C@]2(C(=O)NCc3cccc(C(=O)NCCNC(=O)OCc4ccccc4)c3)CC[C@]3(C)C(CCC4[C@@]5(C)CC[C@H](O)C(C)(C)C5CC[C@]43C)C12 (stereo partly drawn) [Example 5] | 107 nM | 2500 nM |  | 
C=C(C)[C@@H]1CC[C@]2(C(=O)NCc3cccc(C(=O)NCCc4ccc(F)c(C(=O)OC)c4)c3)CC[C@]3(C)C(CCC4[C@@]5(C)CC[C@H](O)C(C)(C)C5CC[C@]43C)C12 (stereo partly drawn) [Example 33] | 135 nM | 18 nM | < 100 nM | 
C=C(C)[C@@H]1CC[C@]2(C(=O)NCCc3cccc(C(=O)NCc4ccc(C(=O)N[C@H](CO)C(=O)OC)cc4)c3)CC[C@]3(C)C(CCC4[C@@]5(C)CC[C@H](O)C(C)(C)C5CC[C@]43C)C12 (stereo partly drawn) [Example 175] | 13 nM | 4 nM |  | 
C=C(C)[C@@H]1CC[C@]2(C(=O)NCCc3cccc(C(=O)NCc4ccc(C(=O)NCCC5CCCN5C)cc4)c3)CC[C@]3(C)C(CCC4[C@@]5(C)CC[C@H](O)C(C)(C)C5CC[C@]43C)C12 (stereo partly drawn) [Example 171] | 50 nM | 11 nM |  | 
C=C(C)[C@@H]1CC[C@]2(C(=O)NCc3cccc(C(=O)NCc4ccc(N(C)C)cc4)c3)CC[C@]3(C)C(CCC4[C@@]5(C)CC[C@H](O)C(C)(C)C5CC[C@]43C)C12 (stereo partly drawn) [Example 47] | 36.3 nM | 41.3 nM | < 100 nM | < 100 nM
C=C(C)[C@@H]1CC[C@]2(C(=O)NCCc3cccc(C(=O)NCc4ccc(C(=O)NCc5cccnc5C(=O)O)cc4)c3)CC[C@]3(C)C(CCC4[C@@]5(C)CC[C@H](O)C(C)(C)C5CC[C@]43C)C12 (stereo partly drawn) [Example 193] | 9 nM | 2 nM |  | 
C=C(C)[C@@H]1CC[C@]2(C(=O)NCCc3cccc(C(=O)NCc4ccc(C(=O)N[C@@H](CCC(=O)O)C(=O)O)cc4)c3)CC[C@]3(C)C(CCC4[C@@]5(C)CC[C@H](O)C(C)(C)C5CC[C@]43C)C12 (stereo partly drawn) [Example 133] | 34 nM | 84 nM | < 100 nM | < 100 nM
C=C(C)[C@@H]1CC[C@]2(C(=O)NCCc3cccc(C(=O)NCC4COCC(C(=O)O)O4)c3)CC[C@]3(C)C(CCC4[C@@]5(C)CC[C@H](O)C(C)(C)C5CC[C@]43C)C12 (stereo partly drawn) [Example 258] | 112 nM | 984 nM |  | 
C=C(C)[C@@H]1CC[C@]2(C(=O)NCCc3cccc(C(=O)NCC(N)=O)c3)CC[C@]3(C)C(CCC4[C@@]5(C)CC[C@H](O)C(C)(C)C5CC[C@]43C)C12 (stereo partly drawn) [Example 72] | 194 nM | 10000 nM |  | 
C=C(C)[C@@H]1CC[C@]2(C(=O)NCCc3cccc(C(=O)NCc4cnc(C)cn4)c3)CC[C@]3(C)C(CCC4[C@@]5(C)CC[C@H](O)C(C)(C)C5CC[C@]43C)C12 (stereo partly drawn) [Example 157] | 32 nM | 111 nM |  | 
C=C(C)[C@@H]1CC[C@]2(C(=O)NCCc3cccc(C(=O)NCc4ccc(C(=O)N5CCN(C(=O)OC(C)(C)C)C(C(=O)OC)C5)cc4)c3)CC[C@]3(C)C(CCC4[C@@]5(C)CC[C@H](O)C(C)(C)C5CC[C@]43C)C12 (stereo partly drawn) [Example 183] | 44 nM | 108 nM |  | 
C=C(C)[C@@H]1CC[C@]2(C(=O)NCCc3cccc(C(=O)NCc4cccnc4C(=O)O)c3)CC[C@]3(C)C(CCC4[C@@]5(C)CC[C@H](O)C(C)(C)C5CC[C@]43C)C12 (stereo partly drawn) [Example 230] | 56 nM | 300 nM |  | 
C=C(C)[C@@H]1CC[C@]2(C(=O)NCc3cc(C(=O)NCCc4cccc(C(=O)OC)c4)ccc3F)CC[C@]3(C)C(CCC4[C@@]5(C)CC[C@H](O)C(C)(C)C5CC[C@]43C)C12 (stereo partly drawn) [Example 98] | 57.7 nM | 13 nM | < 100 nM | < 100 nM
C=C(C)[C@@H]1CC[C@]2(C(=O)NCCc3cccc(C(=O)NCc4ccc(OCCCn5cnc(C(=O)OC)c5)cc4)c3)CC[C@]3(C)C(CCC4[C@@]5(C)CC[C@H](O)C(C)(C)C5CC[C@]43C)C12 (stereo partly drawn) [Example 235] | 18 nM | 66.5 nM |  | 
C=C(C)[C@@H]1CC[C@]2(C(=O)NCCc3cccc(C(=O)NCCc4ccc(C(=O)O)cc4F)c3)CC[C@]3(C)C(CCC4[C@@]5(C)CC[C@H](O)C(C)(C)C5CC[C@]43C)C12 (stereo partly drawn) [Example 75] | 36.3 nM | 1.4 nM | < 100 nM | < 100 nM
C=C(C)[C@@H]1CC[C@]2(C(=O)NCc3cccc(C(=O)NCc4ccc(OCCCn5ccnc5)c(C(=O)OC)c4)c3)CC[C@]3(C)C(CCC4[C@@]5(C)CC[C@H](O)C(C)(C)C5CC[C@]43C)C12 (stereo partly drawn) [Example 121] | 21.3 nM | 17 nM |  | 
C=C(C)[C@@H]1CC[C@]2(C(=O)NCc3cccc(C(=O)NCC(F)(F)c4ccc(C(=O)O)cc4)c3)CC[C@]3(C)C(CCC4[C@@]5(C)CC[C@H](O)C(C)(C)C5CC[C@]43C)C12 (stereo partly drawn) [Example 37] | 56.7 nM | 7.3 nM | < 100 nM | < 100 nM
C=C(C)[C@@H]1CC[C@]2(C(=O)NCCc3cccc(C(=O)NCC4OC5OC(C)(C)O[C@@H]5[C@@H](O)[C@@H]4O)c3)CC[C@]3(C)C(CCC4[C@@]5(C)CC[C@H](O)C(C)(C)C5CC[C@]43C)C12 (stereo partly drawn) [Example 214] | 200 nM | 214 nM |  | 
C=C(C)[C@@H]1CC[C@]2(C(=O)NCc3ccc(F)c(C(=O)NCCc4cccc(C(=O)O)c4)c3)CC[C@]3(C)C(CCC4[C@@]5(C)CC[C@H](O)C(C)(C)C5CC[C@]43C)C12 (stereo partly drawn) [Example 105] | 62.1 nM | 8.5 nM | < 100 nM | < 100 nM
C=C(C)[C@@H]1CC[C@]2(C(=O)NCCc3cccc(C(=O)NCc4ccc(C(=O)N[C@@H](C(=O)O)C(C)C)cc4)c3)CC[C@]3(C)C(CCC4[C@@]5(C)CC[C@H](O)C(C)(C)C5CC[C@]43C)C12 (stereo partly drawn) [Example 168] | 14 nM | 6 nM |  | 
C=C(C)[C@@H]1CC[C@]2(C(=O)NCc3cccc(C(=O)NCc4cccc(C(=O)OC)c4F)c3)CC[C@]3(C)C(CCC4[C@@]5(C)CC[C@H](O)C(C)(C)C5CC[C@]43C)C12 (stereo partly drawn) [Example 42] | 58.3 nM | 42 nM | < 100 nM | < 100 nM
C=C(C)[C@@H]1CC[C@]2(C(=O)NCc3cccc(C(=O)NCC(C)c4cccc(C(=O)O)c4)c3)CC[C@]3(C)C(CCC4[C@@]5(C)CC[C@H](O)C(C)(C)C5CC[C@]43C)C12 (stereo partly drawn) [Example 19] | 6.2 nM | 19 nM | < 100 nM | < 100 nM
C=C(C)[C@@H]1CC[C@]2(C(=O)NCCc3cccc(C(=O)NCCC(=O)O)c3)CC[C@]3(C)C(CCC4[C@@]5(C)CC[C@H](O)C(C)(C)C5CC[C@]43C)C12 (stereo partly drawn) [Example 57] | 98.2 nM | 1200 nM |  | < 100 nM
C=C(C)[C@@H]1CC[C@]2(C(=O)NCCc3cccc(C(=O)NCCc4ccc(C(=O)O)cc4)c3)CC[C@]3(C)C(CCC4[C@@]5(C)CC[C@H](O)C(C)(C)C5CC[C@]43C)C12 (stereo partly drawn) [Example 68] | 15.2 nM | 64 nM | < 100 nM | < 100 nM
C=C(C)[C@@H]1CC[C@]2(C(=O)NCCc3cccc(C(=O)NCc4ccc(OCCCn5ccnc5)cc4)c3)CC[C@]3(C)C(CCC4[C@@]5(C)CC[C@H](O)C(C)(C)C5CC[C@]43C)C12 (stereo partly drawn) [Example 231] | 14.2 nM | 18.5 nM |  | 
C=C(C)[C@@H]1CC[C@]2(C(=O)NCCc3cccc(C(=O)NCc4ccc(C(=O)NC(CO)C(=O)O)cc4)c3)CC[C@]3(C)C(CCC4[C@@]5(C)CC[C@H](O)C(C)(C)C5CC[C@]43C)C12 (stereo partly drawn) [Example 185] | 14 nM | 36 nM |  | 
